Experimental data published in patent publication US10835542B2, “9-aminomethyl minocycline compounds and use thereof in treating community-acquired bacterial pneumonia (CABP)” (Paratek Pharmaceuticals, Inc., priority 2016, dated 2020).

For `COc1c(N2C[C@@H]3CCCN[C@@H]3C2)c(F)cc2c(=O)c(C(=O)O)cn(C3CC3)c12` [Moxifloxacin, moxifloxacin, reference compound], the “Total number of deaths” value (ITT population) was 4, the Subjects who died (Safety population) was 4 (1.0) n (%) and the “Subjects with at least one Adverse Event (AE)” value (Safety population) was 200 (51.5) n (%). The “Subjects with at least one Drug-Related Serious TEAE” value (Safety population) was 2 (0.5) n (%), the “Subjects with at least one Drug-Related TEAE” value (Safety population) was 69 (17.8) n (%) and the “Subjects with at least one Serious TEAE” value (Safety population) was 26 (6.7) n (%). The “Subjects with at least one Serious TEAE Leading to Death” value (Safety population) was 4 (1.0) n (%), the “Subjects with at least one Serious TEAE Leading to Premature Discontinuation of Test Article” value (Safety population) was 11 (2.8) n (%) and the “Subjects with at least one Severe TEAE” value (Safety population) was 26 (6.7) n (%). For the same compound, the “Subjects with at least one TEAE” value (Safety population) was 188 (48.5) n (%), the “Subjects with at least one TEAE Leading to Dose Interruption” value (Safety population) was 0 n (%) and the “Subjects with at least one TEAE Leading to Premature Discontinuation of Study” value (Safety population) was 9 (2.3) n (%). The “Subjects with at least one TEAE Leading to Premature Discontinuation of Test Article” value (Safety population) was 27 (7.0) n (%), the “TEAE leading to study drug discontinuation: Diarrhoea” value (Safety population) was 1 (0.3) n (%) and the “TEAE leading to study drug discontinuation: Dyspepsia” value (Safety population) was 1 (0.3) n (%). The “TEAE leading to study drug discontinuation: Gastrointestinal Disorders” value (Safety population) was 2 (0.5) n (%), the “TEAE leading to study drug discontinuation: Nausea” value (Safety population) was 0 n (%) and the “TEAE leading to study drug discontinuation: Vomiting” value (Safety population) was 0 n (%). For the same compound, the “TEAE: Alanine Aminotransferase Increased” value (Safety population) was 18 (4.6) n (%), the “TEAE: Aspartate Aminotransferase Increased” value (Safety population) was 14 (3.6) n (%) and the “TEAE: Constipation” value (Safety population) was 6 (1.5) n (%). For the same compound, the “TEAE: Diarrhoea” value (Safety population) was 31 (8.0) n (%), the “TEAE: Dyspepsia” value (Safety population) was 2 (0.5) n (%) and the “TEAE: Gamma-Glutamyltransferase Increased” value (Safety population) was 8 (2.1) n (%). The “TEAE: Headache” value (Safety population) was 5 (1.3) n (%), the “TEAE: Hypertension” value (Safety population) was 11 (2.8) n (%) and the “TEAE: Insomnia” value (Safety population) was 8 (2.1) n (%). For the same compound, the “TEAE: Nausea” value (Safety population) was 21 (5.4) n (%), the “TEAE: Pseudomembranous Colitis” value (Safety population) was 1 (0.3) n (%) and the “TEAE: Vomiting” value (Safety population) was 6 (1.5) n (%). The “Total Number of AEs” value (Safety population) was 520 and the “Total Number of TEAEs” value (Safety population) was 461.
